Reference: patent US20120269834A1, “IMMUNOGLOBULIN CLEAVAGE FRAGMENT VACCINE COMPOSITIONS” (priority 2010, published 2012)
Several values for one entry are separate records, joined by “and”; a condition that tells them apart may be missing. Equal values may be shown once. One block for each substance: values may come before it. Ends that are not written are not given here. * marks the point of attachment. Biotin = O=C1N[C@H]2[C@H](CS[C@H]2CCCCC(=O)*)N1

Experiments:
[1] = test system: cleavage site specific analogueue peptide; assay: ELISA titers to the peptide analogueue after immunization of rabbits; assay type: in vivo, rabbit; settings: reciprocal of the dilution at which a signal was detectable, individual immunized rabbits
Text: The procedure described in Example 3 verified that test subject rabbits have had previously developed immune titers to Staph. aureus antigens which would provide for natural bacterial targeting antibodies. To determine if rabbits would generated a sufficiently specific and robust cleavage site specific antibody response after vaccination, with cleavage site peptides, to protect against a bacterial challenge, the following experiment was perfomed where rabbits were immunized with a GluV8-cleavage site peptide analogueue (residues 7-15 of SEQ ID NO: 1, […]) conjugated to the immunogen KLH.
Following immunization, the reactivity of rabbit serum to the peptide analogueue was tested by ELISA. […] Cleavage site specific antibodies were also detected in the wiffle ball fluids of all six rabbits, with the same animal (657) having a low level of detectible antibodies.

S. aureus (ATCC 29213) = assay: wiffle ball (tissue cage) S. aureus infection model in rabbits; assay type: in vivo
Text: In order to test the capacity of cleavage site specific antibodies to rescue cleaved IgGs in vivo, a model for bacterial infection employing a “tissue cage” (Fernandez J A, et. al. (1997) Antimicrob. Agents Chemother. 43(3):667-671) was adopted. In this system, a wiffle ball is surgically implanted subcutaneously in the dorsal cervical area. The model allows the infectious agents to be localized within an easily accessible fluid compartment, a tissue pouch, and has been used to assess the efficacy of antibiotics against bacteria.
In the final phase of the study, the immunized and non-immunized rabbits were inoculated with 6.2 log10 colony forming units (CFUs) of S. aureus (ATCC 29213) directly into the wiffle-ball compartments.
The bacterial counts and test subject viability were monitored over the course of two weeks for bacterial counts and survival. The data shown in FIG. 9 indicate that during the first week of the study, the average bacterial counts for control animals were several logs higher than cleavage site specific vaccinated animals. For example, on day 2 the control had 7.2 log10 CFU/ml wiffle ball fluid while the immunized group had 5.2 log10 CFU/ml wiffle ball fluid.

human IgG1 = human IgG1 (Homo sapiens, UniProt P01857); assay: action of human and bacterial proteases on human IgG1 (Table 1); assay type: biochemical; settings: for Major Product: None = no detectable cleavage in 24 hours; for Cleaved Site: human IgG1 heavy chain, EU numbering
Description: Table 1 is a summary of the findings concerning the action of human proteases and two bacterial proteases on human IgG1. The term “Coagulation proteinases” refers to serum coagulation cascade proteins including; FXIIa, FIXa, FXa, thrombin and activated protein C; plasmin was plasminogen co-incubated with plasminogen activators; tPA, streptokinase and staphylokinase; “plasminogen activators alone” are without plasminogen; and the MMPs were recombinant proteinases obtained either as the active form or the pro-enzyme as detailed in the Materials; and “None” denotes no detectable cleavage in 24 hours. Except where indicated all enzymes where human. The residue designations are for the EU numbering system for the IgG1 antibody heavy chain where the 25 residues of SEQ ID NO: 1 corresponds to residues 219 through 243 of the complete mature heavy chain.

[2] = target: Fab fragment of the 2095-2 antibody; settings: 25° C; for kd / ka: 1:1 (Langmuir) model; for ka: global fit of three Fab surface densities; for Kd: calculated KD
Description: The specificity of binding was further examined using a Fab fragment of the 2095-2 antibody using a surface plasmon resonance platform (Biacore). Briefly, the Fab was immobilized to a CM5 sensor chip in a Biacore 2000 at three different surface densities (8500, 1650, and 350 RU) using standard NHS/EDC coupling. The running buffer contained 10 mM HEPES pH 7.4, 150 mM NaCl, and 0.01% Tween-20. Data were collected at 25° C.
Three N-terminally biotinylated peptides were tested for binding of to the immobilized Fab: WT, representing the expected sequence of a peptide fragment from a human IgG1 cleavage site after cleavage by the Streptococcus pyogenes IdeS protease; E233A, representing a variant of having a single alanine substitution at the amino acid residue four positions upstream of the C-terminus; and L234A, a variant having a single alanine substitution at the amino acid residue three positions upstream from the C-terminus. The peptides were modified by substituting serine for cysteine to make them compatible with the coupling chemistry and preserve the monomeric structure.
Peptides Wild type and E233A were tested in a 3-fold dilution series using 588 nM and 2.9 uM as the highest concentration, respectively. Peptide L234A was tested at 14.7 uM as the highest concentration in a 2-fold dilution series. Each peptide concentration series was tested in triplicate over the three different density Fab surfaces. The association and dissociation were monitored for 1 minute. Surfaces were regenerated with a 12 second injection of 1/500 dilution of phosphoric acid.

platelets = assay: circulating platelet counts in dogs; assay type: in vivo, dog
Description: First, the c7E3 antibody antigen binding and platelet depletion parameters were established in dogs.
c7E3 IgG and c7E3 IgG single-cleaved by IdeS protease were also compared in vivo. Three groups of 5 animals received either saline control, intact c7E3 IgG (0.05 mg/kg) or c7E3 single-cleaved IgG (0.05 mg/kg). Platelet counts were monitored at baseline and at 2, 24, 48, 72 and 96 hours post-administration. Limiting the study to 5 days minimized the likelihood of anti-c7E3 immune responses that might confound the interpretation of the results. The results are presented in FIG. 3 as the mean platelet count±SD for each animal group at each time point. The extent of the error bars connotes the normal variability of platelet counts in different animals (for example, the predose counts for the 5 animals in the single-cleaved IgG treatment group were 175,000, 355,000, 305,000, 276,000 and 334,000 per μL, respectively).
To be consistent with the prior experiments, the variants of c7E3 were all administered at the 0.05 mg/kg dose. The unique aspect of the experiment (groups 6 and 7) involves the infusion of the first targeting mAb followed by the cleavage site specific mAb after a 10 minute delay. […] Platelet counts were monitored over a 96-hour period. […]

[3] = test system: platelet surface IIb/III3 receptors; assay: platelet aggregation assay; assay type: cell-based; settings: 5 μM ADP; compared with intact c7E3 IgG
Description: c7E3 inhibits platelet aggregation by binding to platelet surface IIb/III3 receptors—thereby blocking the ability of fibrinogen to bind to the receptors on activated platelets and to clump them together. The respective inhibitory profiles of intact and single-cleaved c7E3 IgG were tested in a platelet aggregation assay. Platelet aggregation is measured as an increase of light transmission through a platelet suspension after activation with a physiological agonist. The inhibition is compared to control aggregation to 5 μM adenosine diphosphate (ADP). The percent inhibition was calculated as: control aggregation—test aggregation X 100%, divided by control aggregation.

Sequence of human IgG1 (P01857 1-330 isoform P01857-1, other chains not shown): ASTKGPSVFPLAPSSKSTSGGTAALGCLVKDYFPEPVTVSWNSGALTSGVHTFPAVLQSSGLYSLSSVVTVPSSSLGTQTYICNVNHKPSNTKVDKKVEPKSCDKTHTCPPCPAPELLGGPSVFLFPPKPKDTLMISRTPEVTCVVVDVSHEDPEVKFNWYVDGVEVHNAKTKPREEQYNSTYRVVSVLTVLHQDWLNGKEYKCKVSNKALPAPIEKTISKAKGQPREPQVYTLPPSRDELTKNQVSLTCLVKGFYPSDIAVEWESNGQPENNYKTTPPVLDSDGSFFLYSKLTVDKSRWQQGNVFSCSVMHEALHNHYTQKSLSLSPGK

Major Product (human IgG1): None
Substance: Collagenase 2 (MMP-8): recombinant human MMP

Major Product (human IgG1): Fab + Fc | Cleaved Site (human IgG1): Thr^223-
Substance: Neutrophil elastase: human serine endopeptidase

Major Product (human IgG1): F(ab′)2 + | Cleaved Site (human IgG1): Pro^232-
Substance: Stromelysin (MMP-3): recombinant human MMP

Major Product (human IgG1): F(ab′)2 + | Cleaved Site (human IgG1): Leu^234-
Substance: Matrilysin (MMP-7): recombinant human MMP

Major Product (human IgG1): F(ab′)2 + | Cleaved Site (human IgG1): Glu^233-
Substance: Cathepsin G: human serine endopeptidase

Major Product (human IgG1): None
Substance: Cathepsin D: human protease

Major Product (human IgG1): None
Substance: Interstitial collagenase (MMP-1): recombinant human MMP

Second part, the substance before the results:

Substance: C-T-S-P-P-S-P-S-P-A-P-E (CTSPPSPSPAPE; also: conjugated to KLH) [Glutamyl endopeptidase cleavage site analogueue peptide conjugated to keyhole limpet hemocyanin, used to vaccinate rabbits]
Serum (titer) [1]: 640 and 12,800 and 51,000 and 820,000 and 205,000 | Wiffle ball (titer) ([1]; wiffle ball fluid): 3,200 and 12,800 (3×) and 51,000 and 320 | average bacterial counts (S. aureus (ATCC 29213); day 2, immunized rabbits inoculated with 6.2 log10 CFUs): 5.2 log10 CFU/ml wiffle ball fluid | animals viable (S. aureus (ATCC 29213); end of the two week study): 100%

Substance: Biotin-TSPPSPAPELLG [Wt]
kd [2]: 0.00443 ± 0.02 s⁻¹ | ka [2]: 5.22 ± 0.04 M-1s-1 × 10^−5 | Kd [2]: 8.5 nM

Substance: c7E3 single-cleaved IgG: c7E3 IgG single-cleaved in the lower hinge by IdeS protease
effect on platelet numbers (platelets; 0.05 mg/kg, groups of 5 animals, monitored to 96 hours): essentially without effect | effect on platelet numbers (platelets; FIG. 12 study, groups of 3 animals, c7E3 variants 0.05 mg/kg, 2095-2 0.5 mg/kg): without effect | binding/inhibition of platelet aggregation after single lower hinge cleavage by IdeS [3]: no loss of binding/inhibition

Substance: Biotin-TSPPSPAPEALG [L234A]
kd [2]: 1.03 ± 0.01 s⁻¹ | ka [2]: 1.24 ± 0.01 M-1s-1 × 10^−5 | Kd [2]: 8340 nM

Substance: Biotin-TSPPSPAPALLG [E233A]
kd [2]: 0.1070 ± 0.04 s⁻¹ | ka [2]: 7.29 ± 0.03 M-1s-1 × 10^−5 | Kd [2]: 147 nM

Substance: Glutamyl endopeptidase I (Glu V8 protease): glutamyl endopeptidase I from Staph. aureus
Major Product (human IgG1): F(ab′)2 + | Cleaved Site (human IgG1): Glu^233-
